Experimental data: a melting point compilation (Tetko et al.)

SMILES	melting point
O=C(O)CCc1ccc(S(=O)(=O)N2CCCC2)cc1	137 to 139 °C
Nc1ccn(Cc2ccsc2)n1	43 to 45 °C
CC(=O)NCCNC(=O)c1ccccc1N	128 to 130 °C
O=C(CCl)Nc1cccc(C(=O)O)c1	220 to 222 °C
CC(C)NC(=O)Nc1ccc(O)c(C(=O)O)c1	192 to 194 °C
N#CCc1nnc2n1CCCCC2	113 to 115 °C
Clc1ccc2nncn2n1	213 to 215 °C
CC(=O)C(C#N)c1c(Cl)cccc1Cl (stereo not drawn)	49 to 51 °C
FC(F)n1ccnc1Cn1cc(Br)cn1	79 to 81 °C
Cc1nn(C)cc1C=O	46 to 48 °C
CCc1ccc(C(=O)Nc2ccc(N)cc2Cl)s1	120 to 122 °C
O=C1CSC(c2ccc(F)cc2)N1C1CC1 (stereo not drawn)	225 to 227 °C
O=c1[nH]c2cc(F)c(F)cc2[nH]1	332 to 334 °C
OCC(NCc1ccccc1)C1CC1 (stereo not drawn)	56 to 58 °C
COc1ccc(C(=O)Nc2ccccc2C(=O)O)cc1	184 to 186 °C
C=CCNc1nc(-c2ccccc2)cs1	74 to 76 °C
O=C(O)C1CCCN1S(=O)(=O)c1ccccc1 (stereo not drawn)	79 to 81 °C
Cc1cc(C=O)ccc1[N+](=O)[O-]	65 to 67 °C
Cc1cc(Cl)ncc1O	168 to 170 °C
Cc1cc(C(=O)O)c(C)n1CC1CC1	179 to 181 °C
Cc1cc(C(=O)O)ccc1-n1cncn1	242 to 244 °C
Cc1ccc(-c2nn(-c3ccccc3)cc2C=O)o1	112 to 114 °C
COc1ccc(S(=O)(=O)N2CCC(=NO)CC2)cc1	164 to 166 °C
Nc1nc(-c2cccnc2)no1	266 to 268 °C
O=C(O)COc1ccc(C2SCCS2)cc1	137 to 139 °C

SMILES	melting point
COc1cc(C(=O)O)ccc1OC1CCCC1	153 to 155 °C
CC(C)c1ccc(N)c(C(=O)O)c1	96 to 98 °C
COc1ccc(-c2nc(CN)cs2)cc1	67 to 69 °C
COc1ccc(-c2cc(C(=O)O)n(-c3ccccc3)n2)cc1	190 to 192 °C
NC(Cc1cccc2cccnc12)=NO	172 to 174 °C
O=c1[nH]nnc2sc3c(c12)CCCC3	185 to 187 °C
NC(=O)C1COc2ccccc2O1 (stereo not drawn)	141 to 143 °C
Nc1cc(Cl)c(OC(F)F)c(Cl)c1	82 to 84 °C
O=C(O)C1CC(=O)N(Cc2cccc(C(F)(F)F)c2)C1 (stereo not drawn)	109 to 111 °C
Clc1nc(Cl)c2cn[nH]c2n1	127 to 129 °C
Cc1cc(NC(=O)c2ccccc2Cl)sc1C(=O)O	223 to 225 °C
O=C(O)c1cn(-c2cccc([N+](=O)[O-])c2)nn1	159 to 161 °C
CNc1n[nH]c(N)c1S(C)(=O)=O	171 to 173 °C
NCC(O)C1CC1 (stereo not drawn)	34 to 36 °C
OCc1nc2ccccc2o1	59 to 61 °C
O=C(O)/C=C/c1cc(Cl)c2c(c1)OCCO2	261 to 263 °C
Clc1ccnc(C2=NCCO2)c1	73 to 75 °C
O=c1[nH]c(CCl)nc2scc(-c3ccco3)c12	230 to 232 °C
CC1C=CC2C(=O)N(C(C)C)C(=O)C2C1C(=O)O (stereo not drawn)	149 to 151 °C
Nc1cccc(-c2ncco2)c1	61 to 63 °C
CN(CC(=O)O)S(=O)(=O)c1ccc2c(c1)OCCO2	141 to 143 °C
O=C(O)c1cnn(-c2ccc(Cl)cc2)c1	237 to 239 °C
O=C(O)Cc1cc2ccccc2o1	89 to 91 °C
Cc1nccn1-c1ccc(Cl)nn1	122 to 124 °C
Cc1ccc(SC2CCCC2)c(C(=O)O)c1	130 to 132 °C

SMILES	melting point
NC(=O)COc1cccc(CO)c1	116 to 118 °C
Nc1ccc(C(=O)O)nc1Cl	214 to 216 °C
COc1ccc(N2CC(C(=O)O)CC2=O)c(OC)c1 (stereo not drawn)	183 to 185 °C
O=S(=O)(Cl)c1ccc2c(c1)S(=O)(=O)NC=N2	247 to 249 °C
COc1ccc(CCNc2nnc(S)s2)cc1OC	189 to 191 °C
CC(=O)c1ccc(OC2CCOCC2)cc1	72 to 74 °C
Cc1cc(=O)[nH]c(SCC(=O)O)c1C#N	198 to 200 °C
O=S(=O)(Cl)C1CCCCC1O (stereo not drawn)	49 to 51 °C
O=C1CCc2cc(Br)ccc2N1	169 to 171 °C
OCc1cc(Br)cc(CO)c1O	164 to 166 °C
Cc1ccc(C(N)CC(=O)O)o1 (stereo not drawn)	199 to 201 °C
CNc1cnc(Cl)cc1C(=O)O	279 to 281 °C
O=C(O)CCOc1cccc([N+](=O)[O-])c1	111 to 113 °C
O=C(c1ccc(F)cc1)c1cnc2ccccc2c1	89 to 91 °C
CN(CC(C)(C)C)C(=O)c1cccc(C(=O)O)c1	132 to 134 °C
FC(F)(F)c1ccc2nnc(C3CCCNC3)n2c1 (stereo not drawn)	226 to 228 °C
CCOC(=O)c1ccc(C(=O)O)nc1C	88 to 90 °C
COc1ccc(S(=O)(=O)Cl)cc1C(=O)O	142 to 144 °C
O=c1[nH]ncc2c[nH]nc12	266 to 268 °C
O=C(O)c1c[nH]c(=O)[nH]1	232 to 236 °C
O=C(O)c1cccnc1OCC(F)F	79 to 81 °C
CCc1cccc2c(C3CCNCC3)c[nH]c12	183 to 185 °C
O=C(CCl)Nc1ccccc1C(=O)NC1CC1	170 to 172 °C
